Data set [1] concerns the target h-5-HT-T (Homo sapiens, UniProt P31645). The data set can be described thus: h-5-HT-T IC50 (Table 1, no method described).
The target of data set [2] is T1, Human 5-HT1A Receptor (Homo sapiens, UniProt P08908).
T1 construct: expressed in transfected cells; host or cells: CHO cells
T1 sequence (P08908 1-422): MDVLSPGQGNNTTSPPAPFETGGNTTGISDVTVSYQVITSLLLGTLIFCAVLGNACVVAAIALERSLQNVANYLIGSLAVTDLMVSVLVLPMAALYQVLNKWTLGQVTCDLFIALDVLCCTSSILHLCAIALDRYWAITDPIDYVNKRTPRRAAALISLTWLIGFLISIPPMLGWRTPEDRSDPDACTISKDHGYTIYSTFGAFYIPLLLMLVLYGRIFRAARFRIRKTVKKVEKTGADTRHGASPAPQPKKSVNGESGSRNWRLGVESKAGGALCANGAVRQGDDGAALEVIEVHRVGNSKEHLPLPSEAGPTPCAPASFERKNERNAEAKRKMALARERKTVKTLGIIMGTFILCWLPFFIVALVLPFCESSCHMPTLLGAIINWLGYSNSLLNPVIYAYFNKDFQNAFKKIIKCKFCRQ
The data set can be described thus: 8-OH-DPAT binding, human 5-HT1A receptor cell line. The conditions noted are these: stably transfected CHO cells, 8-OH-DPAT ligand 1.5 nM; read-out: h5-HT1A Affinity, Ki. Here is the method:
Stably transfected CHO cells were grown in DMEM containing 10% heat inactivated FBS and non-essential amino acids. Cells were scraped off the plate, transferred to centrifuge tubes, and washed twice by centrifugation (2000 rpm for 10 min., 4° C.) in buffer (50 mM Tris, pH 7.5). The resulting pellets were aliquoted and placed at −80° C. On day of assay, the cells were thawed on ice, and resuspended in buffer. The binding assay was performed in a 96 well microtiter plate in a total volume of […]. Non-specific binding was determined in the presence of […] 5HT; final ligand concentration was 1.5 nM. Following a 30 min. incubation at room temperature, the reaction was terminated by the addition of ice cold buffer and rapid filtration through a GF/B filter presoaked for 30 min. in 0.5% PEI. Compounds were initially tested in a single point assay to determine percent inhibition at […]. Subsequently, Ki values were determined for compounds defined to be active. Percent inhibition Ki was determined by RFComp (Lundon Software), with Serotonin 8-OH-DPAT as the reference compounds.

For data set [3], the target named is T1, Human 5-HT1A Receptor. The data set can be described thus: cAMP RIA in human 5-HT1A receptor cell line. It counts as cell-based. Particulars: CHO cells; for Emax: superscript c, read-out: c-AMP, (Emax)^c; for Emax / EC50: forskolin stimulated cAMP; for EC50: superscript a, read-out: c-AMP, (EC50)^a; for IC50: superscript b, reversal of agonist activity, read-out: c-AMP, (IC50)^b. Here is the method:
Stably transfected CHO cells were grown in DMEM containing 10% heat inactivated FBS and non-essential amino acids. The cells were plated at a density of 10^6 cells per well in a 96 well plate and incubated for 2 days in a CO2 incubator. On the second day, the media was replaced with 0.1 ml Krebs and incubated 15 minutes at 37° C. The media was then replaced with Krebs buffer containing 500 uM IBMX and incubated 5 minutes at 37° C. Wells were treated with forskolin (1 uM final conc) followed immediately by test compound (0.1 and 1 uM for initial screen) and incubated for an additional 10 min at 37° C. Reaction was terminated by removal of the media and addition of 0.5 ml ice cold assay buffer (supplied in RIA kit). Plates are stored at −20° C. prior to assessment of cAMP formation by RIA. Compounds shown to have no agonist activities were further analyzed for ability to reverse agonist activity. In separate experiments, 6 concentrations of antagonist were preincubated for 20 min prior to the addition of agonist and forskolin. Cells were harvested as described. The cAMP kit is supplied by Amersham and the RIA is performed as per kit instructions. In the initial screen, percent inhibition of forskolin stimulated cAMP was measured. In the secondary screen, IC50 of reversal of agonist activity was measured. Calculations of IC50 were performed by GraphPad Prism. Serotonin, BMY 7378, Buspirone, and 8-OH-DPAT were used as reference compounds.

The target in data set [4] is T2, serotonin transporter (Rattus norvegicus, UniProt P31652).
T2 construct: frontal cortical membranes prepared from male S.D. rats; from tissue; host or cells: rat frontal cortex membranes (male Sprague-Dawley)
The data set can be described thus: 3H-paroxetine binding to the serotonin transporter, rat frontal cortical membranes. Particulars: 3H-paroxetine 0.1 nM; for Ki: values printed without parentheses, read-out: rb-5-HH-T, Ki; for IC50: values printed in parentheses, read-out: rb-5-HH-T, (IC50). Here is the method:
A protocol similar to that used by Cheetham et al. (Neuropharmacol. 32:737, 1993) was used to determine the affinity of compounds for the serotonin transporter. Briefly, frontal cortical membranes prepared from male S.D. rats were incubated with ^3H-paroxetine (0.1 nM) for 60 min at 25° C. All tubes also contained either vehicle, test compound (one to eight concentrations), or a saturating concentration of fluoxetine (10 μM) to define […]. All reactions are terminated by the addition of ice cold Tris buffer followed by rapid filtration using a Tom Tech filtration device to separate bound from free ^3H-paroxetine. Bound radioactivity was quantitated using a Wallac 1205 Beta Plate® counter. Nonlinear regression analysis was used to determine IC50 values which were converted to Ki values using the method of Cheng and Prusoff (Biochem. Pharmacol. 22: 3099, 1973); […].

Structures can show the parent of a compound that is named as a salt. Where two headings read alike, the source gives them in different places.

Chain of h-5-HT-T (P31645 whole entry): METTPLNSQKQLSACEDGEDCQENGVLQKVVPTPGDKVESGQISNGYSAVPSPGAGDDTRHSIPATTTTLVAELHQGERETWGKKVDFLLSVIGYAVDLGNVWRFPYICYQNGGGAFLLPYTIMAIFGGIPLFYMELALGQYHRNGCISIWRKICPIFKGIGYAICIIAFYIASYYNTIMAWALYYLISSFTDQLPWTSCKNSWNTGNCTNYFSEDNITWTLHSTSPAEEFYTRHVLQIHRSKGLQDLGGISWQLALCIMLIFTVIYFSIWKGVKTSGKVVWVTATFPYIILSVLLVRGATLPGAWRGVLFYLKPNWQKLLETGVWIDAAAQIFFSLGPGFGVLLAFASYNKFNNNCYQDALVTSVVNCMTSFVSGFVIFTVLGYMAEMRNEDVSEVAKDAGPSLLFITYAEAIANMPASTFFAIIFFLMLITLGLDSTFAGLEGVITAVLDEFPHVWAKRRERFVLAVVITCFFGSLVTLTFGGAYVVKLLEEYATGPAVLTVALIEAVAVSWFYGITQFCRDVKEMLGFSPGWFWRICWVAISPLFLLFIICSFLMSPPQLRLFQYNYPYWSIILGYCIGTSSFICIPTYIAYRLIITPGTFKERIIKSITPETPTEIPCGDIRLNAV
T2 sequence (P31652 whole entry): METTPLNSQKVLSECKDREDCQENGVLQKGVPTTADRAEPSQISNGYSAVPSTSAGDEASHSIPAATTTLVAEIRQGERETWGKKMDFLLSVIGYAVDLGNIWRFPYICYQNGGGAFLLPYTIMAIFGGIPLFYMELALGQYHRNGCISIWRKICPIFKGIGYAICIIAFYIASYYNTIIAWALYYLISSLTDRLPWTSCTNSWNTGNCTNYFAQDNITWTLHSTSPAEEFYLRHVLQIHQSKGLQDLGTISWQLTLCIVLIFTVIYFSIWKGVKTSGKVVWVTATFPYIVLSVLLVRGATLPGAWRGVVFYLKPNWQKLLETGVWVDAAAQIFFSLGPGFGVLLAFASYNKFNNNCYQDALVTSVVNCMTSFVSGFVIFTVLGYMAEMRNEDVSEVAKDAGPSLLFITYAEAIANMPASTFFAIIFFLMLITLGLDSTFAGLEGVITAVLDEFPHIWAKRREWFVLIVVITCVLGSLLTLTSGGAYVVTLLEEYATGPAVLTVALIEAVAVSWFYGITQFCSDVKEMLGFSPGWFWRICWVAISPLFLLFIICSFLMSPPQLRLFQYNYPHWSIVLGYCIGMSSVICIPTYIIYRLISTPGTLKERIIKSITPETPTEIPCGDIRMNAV

`Cc1ccc2c3c(ccc2n1)OC[C@H](CNC1CCc2c([nH]c4ccc(F)cc24)C1)O3` (mixture of isomers) [Example 46, 6-Fluoro-N-{[(2S)-8-methyl-2,3-dihydro[1,4]dioxino[2,3-f]quinolin-2-yl]methyl}-2,3,4,9-tetrahydro-1H-carbazol-2-amine] had an IC50 in data set [1] of 0.0525 ± 0.00173 µM. Moreover, the Ki came out at 0.231 µM in data set [2] and 0.00855 µM in data set [4]. Further, the maximal effect (Emax) in data set [3] (CHO) was 70%. In addition, the EC50 in data set [3] turned out to be 0.155 µM.
`Cc1ccc2c3c(ccc2n1)OC[C@H](CNCC1CCc2sc4ccccc4c2C1)O3` (single isomer, unassigned) [32 diastereomer 2]: the IC50 in data set [1] was determined as 0.885 µM; in data set [3] it was 0.0177 µM. In addition, the Ki in data set [2] amounted to 0.00649 µM; in data set [4], 0.0476 µM.
Compound `Cc1ccc2c3c(ccc2n1)OC[C@H](CN[C@@H]1CCc2c([nH]c4ccccc24)C1)O3` (single isomer, unassigned) [Example 44, dihydrochloride] came in with an IC50 in data set [1] of 0.0221 ± 0.00251 µM. Moreover, the Ki in data set [2] amounted to 0.62 µM. Also, in data set [3], the EC50 was 0.225 µM and the Emax was found to be 74%.
Take `Cc1ccc2c3c(ccc2n1)OC[C@H](CNC[C@H]1CCc2[nH]c4ccc(C#N)cc4c2C1)O3.Cl.Cl` [Example 14, (3S)-3-[({[(2S)-8-methyl-2,3-dihydro[1,4]dioxino[2,3-f]quinolin-2-yl]methyl}amino)methyl]-2,3,4,9-tetrahydro-1H-carbazole-6-carbonitrile dihydrochloride]: the melting point was 236 to 241 °C. In addition, in data set [2], the Ki came out at 0.0136 µM. Besides, in data set [3], the IC50 was determined as 0.0795 µM. In addition, in data set [4], the IC50 turned out to be 0.00361 µM.
Take `Cc1ccc2c3c(ccc2n1)OC[C@H](CNC[C@@H]1CCc2[nH]c4ccc(C#N)cc4c2C1)O3.Cl.Cl` [Example 15, (3R)-3-[({[(2S)-8-methyl-2,3-dihydro[1,4]dioxino[2,3-f]quinolin-2-yl]methyl}amino)methyl]-2,3,4,9-tetrahydro-1H-carbazole-6-carbonitrile dihydrochloride]: the melting point is 254 to 258 °C. Also, in data set [2], the Ki turned out to be 0.015 µM. Besides, the IC50 in data set [3] amounted to 0.888 µM. The IC50 in data set [4] is 0.00225 µM.
In data set [1], `Cc1ccc2c3c(ccc2n1)OC[C@H](CN(C[C@@H]1CCc2[nH]c4ccc(F)cc4c2C1)C(C)C)O3` [Example 57, N-{[(3R)-6-Fluoro-2,3,4,9-tetrahydro-1H-carbazol-3-yl]methyl}-N-{[(2S)-8-methyl-2,3-dihydro[1,4]dioxino[2,3-f]quinolin-2-yl]methyl}propan-2-amine monohydrochloride monohydrate] showed an IC50 of 1.13 ± 0.109 µM. For the same compound, the figures for the Ki in data set [2] and in data set [4] were 6.14 µM and 1.57 µM, respectively.
Regarding `Cc1ccc2c3c(ccc2n1)OC[C@H](CN(C[C@@H]1CCc2[nH]c4ccc(F)cc4c2C1)C1CCCCC1)O3` [Example 60, N-{[(3R)-6-fluoro-2,3,4,9-tetrahydro-1H-carbazol-3-yl]methyl}-N-{[(2S)-8-methyl-2,3-dihydro[1,4]dioxino[2,3-f]quinolin-2-yl]methyl}cyclohexanamine monohydrochloride monohydrate], the IC50 in data set [1] is 0.995 ± 0.0244 µM. Besides, the Ki in data set [4] was determined as 0.394 µM.
Take `Cc1ccc2c3c(ccc2n1)OC[C@H](CN(C[C@H]1CCc2[nH]c4ccc(F)cc4c2C1)C(C)C)O3` [Example 61, N-{[(3S)-6-Fluoro-2,3,4,9-tetrahydro-1H-carbazol-3-yl]methyl}-N-{[(2S)-8-methyl-2,3-dihydro[1,4]dioxino[2,3-f]quinolin-2-yl]methyl}propan-2-amine monohydrochloride monohydrate]: the IC50 in data set [1] turned out to be 1.7 ± 0.046 µM.
Turning to `CCC(C)N(C[C@H]1CCc2[nH]c3ccc(F)cc3c2C1)C[C@H]1COc2ccc3nc(C)ccc3c2O1` (stereo partly drawn) [Example 62, N-{[(3S)-6-Fluoro-2,3,4,9-tetrahydro-1H-carbazol-3-yl]methyl}-N-{[(2S)-8-methyl-2,3-dihydro[1,4]dioxino[2,3-f]quinolin-2-yl]methyl}butan-2-amine monohydrochloride monohydrate], half-maximal inhibition in data set [1] (IC50) required 0.73 ± 0.00919 µM. Further, in data set [2], the Ki worked out at 1.96 µM.
For the compound `Cc1ccc2c3c(ccc2n1)OC[C@H](CN(C[C@H]1CCc2[nH]c4ccc(F)cc4c2C1)C1CCCC1)O3` [Example 63, N-{[(3S)-6-Fluoro-2,3,4,9-tetrahydro-1H-carbazol-3-yl]methyl}-N-{[(2S)-8-methyl-2,3-dihydro[1,4]dioxino[2,3-f]quinolin-2-yl]methyl}cyclopentanamine monohydrochloride monohydrate], in data set [1], the IC50 was 0.389 ± 0.0382 µM. In data set [3], the EC50 came out at 1.35 µM and the Emax turned out to be 73%. Further, in data set [4], the Ki came to 0.113 µM.
Compound `Cc1ccc2c3c(ccc2n1)OC[C@H](CN(C[C@H]1CCc2[nH]c4ccc(F)cc4c2C1)C1CCCCC1)O3` [Example 64, N-{[(3S)-6-Fluoro-2,3,4,9-tetrahydro-1H-carbazol-3-yl]methyl}-N-{[(2S)-8-methyl-2,3-dihydro[1,4]dioxino[2,3-f]quinolin-2-yl]methyl}cyclohexanamine monohydrochloride monohydrate] yielded an IC50 in data set [1] of 2.49 ± 0.269 µM. In data set [4], the Ki is 0.455 µM.
As for `Cc1ccc2c3c(ccc2n1)OCC(CN(CC1CCc2c(c4cc(F)ccc4n2C)C1)C(C)C)O3` [Example 65, N-[(6-Fluoro-9-methyl-2,3,4,9-tetrahydro-1H-carbazol-3-yl)methyl]-N-([(2S)-8-methyl-2,3-dihydro[1,4]dioxino[2,3-f]quinolin-2-yl]methylpropan-2-aminemonohydrochloride monohydrate], half-maximal inhibition in data set [1] (IC50) required 0.403 ± 0.029 µM.
In turn, `Cc1ccc2c3c(ccc2n1)OC[C@H](CN(CC1CCc2c(c4cc(F)ccc4n2C)C1)C1CCCC1)O3` (stereo partly drawn) [Example 66, N-[(6-Fluoro-9-methyl-2,3,4,9-tetrahydro-1H-carbazol-3-yl)methyl]-N-{[(2S)-8-methyl-2,3-dihydro[1,4]dioxino[2,3-f]quinolin-2-yl]methyl}cyclopentanamine monohydrochloride monohydrate] gave a half-inhibitory concentration (IC50) in data set [1] of 0.0623 ± 0.00919 µM. For the same compound, in data set [3], the EC50 came out at 0.163 µM and the Emax is 67.5%.
The compound `Cc1ccc2c3c(ccc2n1)OC[C@H](CN(CC1CCc2c(c4cc(F)ccc4n2C)C1)C1CCCCC1)O3` (stereo partly drawn) [Example 67, N-[(6-Fluoro-9-methyl-2,3,4,9-tetrahydro-1H-carbazol-3-yl)methyl]-N-{[(2S)-8-methyl-2,3-dihydro[1,4]dioxino[2,3-f]quinolin-2-yl]methyl}cyclohexanamine monohydrochloride monohydrate] came in with an IC50 in data set [1] of 0.505 ± 0.00955 µM.

Usually IC50 stands for the concentration that gives 50% inhibition. In general, Ki refers to the equilibrium dissociation constant of an inhibitor or competing ligand from its target. One may read the Emax as the maximal effect, on the per cent scale that the assay sets. As usually defined, the EC50 is the concentration needed to bring the measured effect to its halfway point. A word on the melting point: it is the temperature of the solid-liquid transition.

The values above are taken from patent publication US7297704B2, “Cycloalkyfused indole, benzothiophene, benzofuran and idene derivatives” (Wyeth, priority 2005, dated 2007).
